Assays:
[1] = tested on: UACC-812 (Breast Carcinoma); test: combination Emax (second highest fraction inhibited in the dose matrix, 72 h); higher = more inhibition; extreme values may be limits of the assay
Outline: (§1)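 After 24 hours at 37°C and 5% CO2 in 1536-well plates, cells in DMEM/F12 or RPMI plus 10% FBS received two-drug dose matrices for 72 hours. Viability came from CellTiter-Glo 2.0 luminescence and was scaled as inhibition, anchored at 0 by vehicle wells and at 1 by blank wells. Combination Emax is taken as the second-highest inhibition in the matrix, and Bliss excess as the observed combination effect less EA + EB − EA·EB, with EA and EB the single-agent effects.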

[2] = tested on: huH-1 (Hepatocellular Carcinoma); test: Bliss excess, mean over the matrix (fraction); higher = more synergy;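 note: after 72 h of two-drug dosing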
Outline: as §1

5637 (Bladder Carcinoma) = test: combination Emax (second highest fraction inhibited in the dose matrix, 72 h); higher = more inhibition; extreme values may be limits of the assay
Outline: as §1

A101D (Melanoma) = test: as above
Outline: as §1

[3] = tested on: A253 (Head and Neck Carcinoma); test: as above
Outline: as §1

AU565 (Breast Carcinoma) = test: as above
Outline: as §1

[4] = tested on: CESS (Acute Myeloid Leukemia); test: as above
Outline: as §1

COLO-792 (Melanoma) = test: as above
Outline: as §1

[5] = tested on: DMS-53 (Small Cell Lung Carcinoma); test: as above
Outline: as §1

[6] = tested on: DU-4475 (Breast Carcinoma); test: as above
Outline: as §1

[7] = tested on: G-402 (Other Solid Carcinomas); test: as above
Outline: as §1

[8] = tested on: GA-10 (Burkitt's Lymphoma); test: as above
Outline: as §1

[9] = tested on: HCC1428 (Breast Carcinoma); test: as above
Outline: as §1

[10] = tested on: JIMT-1 (Breast Carcinoma); test: as above
Outline: as §1

[11] = tested on: Jurkat (T-Lymphoblastic Leukemia); test: as above
Outline: as §1

[12] = tested on: LS-411N (Colorectal Carcinoma); test: as above
Outline: as §1

[13] = tested on: NCI-H716 (Colorectal Carcinoma); test: as above
Outline: as §1

[14] = tested on: OACp4C (Esophageal Adenocarcinoma); test: as above
Outline: as §1

RH-41 (Rhabdomyosarcoma) = test: as above
Outline: as §1

Compound	combination Emax [1]	Bliss excess [2]	combination Emax (5637 (Bladder Carcinoma))	combination Emax (A101D (Melanoma))	combination Emax [3]	combination Emax (AU565 (Breast Carcinoma))	combination Emax [4]	combination Emax (COLO-792 (Melanoma))	combination Emax [5]	combination Emax [6]	combination Emax [7]	combination Emax [8]	combination Emax [9]	combination Emax [10]	combination Emax [11]	combination Emax [12]	combination Emax [13]	combination Emax [14]	combination Emax (RH-41 (Rhabdomyosarcoma))
CN(CCO)CC[C@H](CSc1ccccc1)Nc1ccc(S(=O)(=O)NC(=O)c2ccc(N3CCC([C@@H](O)c4ccccc4-c4ccc(Cl)cc4)CC3)cc2)cc1S(=O)(=O)C(F)(F)F [AZD4320] + CC(=O)O[C@H]1C(=O)[C@@]2(C)[C@H]([C@H](OC(=O)c3ccccc3)[C@]3(O)C[C@H](OC(=O)[C@H](O)[C@@H](NC(=O)c4ccccc4)c4ccccc4)C(C)=C1C3(C)C)[C@]1(OC(C)=O)CO[C@@H]1C[C@@H]2O [Paclitaxel] (first compound max 1 µM, 7x7, partner max 3 µM)	0.566																		
CN(CCO)CC[C@H](CSc1ccccc1)Nc1ccc(S(=O)(=O)NC(=O)c2ccc(N3CCC([C@@H](O)c4ccccc4-c4ccc(Cl)cc4)CC3)cc2)cc1S(=O)(=O)C(F)(F)F [AZD4320] + Nc1ccn([C@@H]2O[C@H](CO)[C@@H](O)C2(F)F)c(=O)n1 [Gemcitabine] (first compound max 1 µM, 7x7, partner max 0.3 µM)	0.635																		
COc1nnc2ccc(N3CCC(c4ccc(OCCN5CCN(C)C(=O)[C@H]5C)cc4)CC3)nn12 [AZD5153] + CN(CC[C@H](CSC1=CC=CC=C1)NC2=C(C=C(C=C2)S(=O)(=O)NC(=O)C3=CC=C(C=C3)N4CCC(CC4)[C@H](C5=CC=CC=C5C6=CC=C(C=C6)Cl)O)S(=O)(=O)C(F)(F)F)CCO [AZD4320] (first compound max 1 µM, 7x7, partner max 1 µM)		-0.0206	0.957	0.79	0.328	0.386	0.841	0.856	0.987	1	0.846	0.672	0.915	0.384	0.975	0.978	0.754	0.918	1
Cc1cc2ncnn2cc1Nc1ncc2c(n1)n(C1CCOCC1)c(=O)n2C [AZD7648] + COc1cc([C@@H]2c3cc4c(cc3[C@@H](O[C@@H]3O[C@@H]5CO[C@@H](C)O[C@H]5[C@H](O)[C@H]3O)[C@H]3COC(=O)[C@H]23)OCO4)cc(OC)c1O [Etoposide] (first compound max 10 µM, 7x7, partner max 10 µM)	0.528																		
Cc1nc(Nc2ncc(C(=O)Nc3c(C)cccc3Cl)s2)cc(N2CCN(CCO)CC2)n1 [Dasatinib] + CC(=O)Nc1cccc(-n2c(=O)n(C3CC3)c(=O)c3c(Nc4ccc(I)cc4F)n(C)c(=O)c(C)c32)c1 [Trametinib] (first compound max 2 µM, 7x7, partner max 1 µM)		-0.0076	0.973	0.688	0.414	0.123	0.527	0.556	0.334	1	0.846	0.609	0.205	0.779	0.157	0.834	0.472	0.995	0.443
COc1cc2ncnc(Nc3ccc(F)c(Cl)c3)c2cc1OCCCN1CCOCC1 [Gefitinib] + CC(C)n1c(=O)n(C)c2cnc3cc(F)c(-c4ccc(OCCCN5CCCCC5)nc4)cc3c21 [AZD1390] (first compound max 10 µM, 7x7, partner max 0.3 µM)	0.24	-0.0593	0.495	0.267	0.196	0.737	0.195	0.251	0.147	0.157	0.214	0.353	0.101	0.491	0.199	0.0453	0.361	0.572	0.147
CC(=O)c1c(C)c2cnc(Nc3ccc(N4CCNCC4)cn3)nc2n(C2CCCC2)c1=O [Palbociclib] + CN(CC[C@H](CSC1=CC=CC=C1)NC2=C(C=C(C=C2)S(=O)(=O)NC(=O)C3=CC=C(C=C3)N4CCC(CC4)[C@H](C5=CC=CC=C5C6=CC=C(C=C6)Cl)O)S(=O)(=O)C(F)(F)F)CCO [AZD4320] (first compound max 10 µM, 7x7, partner max 1 µM)		-0.0294	0.619	0.738	0.202	0.227	0.906	0.975	1	0.943	0.781	0.95	0.449	0.257	0.917	0.691	0.497	0.839	0.883

Source: the supplement of paper PMC11061612
